The supplement of paper PMC10627819

Tests used:
Assay in all cases: fitness (endpoint OD595 vs no drug) (fraction); higher = more growth
S. pneumoniae D39V = system: S. pneumoniae D39V
How it was run: (§1)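 In 384-well plates at 37 °C, cultures began at OD595 0.01 in 30 µl, with 55 µl used for S. pneumoniae. OD595 readings every 30 min for 14 h were corrected by the first reading. Fitness divides the stationary-phase transition optical density by the robust mean of no-drug control wells. The result is capped at 1.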

B. subtilis 168 = system: B. subtilis 168
How it was run: as §1

S. aureus Newman = details: one replicate
How it was run: as §1
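Also: OD595 on entry to stationary phase over no-drug wells; at most 1.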

O=C(O)[C@H]1/C(=C/CO)O[C@@H]2CC(=O)N21 [Clavulanic acid] + Cc1onc(-c2ccccc2)c1C(=O)N[C@@H]1C(=O)N2[C@@H]1SC(C)(C)[C@@H]2C(=O)O [Oxacillin]
Details	fitness
B. subtilis 168, first compound 1.5 µg/mL, partner 0.002 µg/mL	0.917
B. subtilis 168, first compound 1.5 µg/mL, partner 0.004 µg/mL	0.956
B. subtilis 168, first compound 1.5 µg/mL, partner 0.008 µg/mL	0.962
B. subtilis 168, first compound 3 µg/mL, partner 0.002 µg/mL	0.901
B. subtilis 168, first compound 3 µg/mL, partner 0.004 µg/mL	0.899
B. subtilis 168, first compound 3 µg/mL, partner 0.008 µg/mL	0.866
B. subtilis 168, first compound 6 µg/mL, partner 0.002 µg/mL	0.827
B. subtilis 168, first compound 6 µg/mL, partner 0.004 µg/mL	0.788
B. subtilis 168, first compound 6 µg/mL, partner 0.008 µg/mL	0.762
S. aureus Newman, first compound 0.03125 µg/mL, partner 0.0156 µg/mL	0.861
S. aureus Newman, first compound 0.03125 µg/mL, partner 0.0312 µg/mL	0.801
S. aureus Newman, first compound 0.03125 µg/mL, partner 0.0625 µg/mL	0.628
S. aureus Newman, first compound 0.0625 µg/mL, partner 0.0156 µg/mL	0.785
S. aureus Newman, first compound 0.0625 µg/mL, partner 0.0312 µg/mL	0.784
S. aureus Newman, first compound 0.0625 µg/mL, partner 0.0625 µg/mL	0.564
S. aureus Newman, first compound 0.125 µg/mL, partner 0.0156 µg/mL	0.749
S. aureus Newman, first compound 0.125 µg/mL, partner 0.0312 µg/mL	0.697
S. aureus Newman, first compound 0.125 µg/mL, partner 0.0625 µg/mL	0.584
S. pneumoniae D39V, first compound 0.5 µg/mL, partner 0.005 µg/mL	0.994
S. pneumoniae D39V, first compound 0.5 µg/mL, partner 0.01 µg/mL	0.953
S. pneumoniae D39V, first compound 0.5 µg/mL, partner 0.02 µg/mL	0.943
S. pneumoniae D39V, first compound 0.5 µg/mL, partner 0.04 µg/mL	0.401
S. pneumoniae D39V, first compound 1 µg/mL, partner 0.005 µg/mL	0.952
S. pneumoniae D39V, first compound 1 µg/mL, partner 0.01 µg/mL	0.888
S. pneumoniae D39V, first compound 1 µg/mL, partner 0.02 µg/mL	0.837
S. pneumoniae D39V, first compound 1 µg/mL, partner 0.04 µg/mL	0.228
S. pneumoniae D39V, first compound 2 µg/mL, partner 0.005 µg/mL	0.846
S. pneumoniae D39V, first compound 2 µg/mL, partner 0.01 µg/mL	0.749
S. pneumoniae D39V, first compound 2 µg/mL, partner 0.04 µg/mL	0.0623

fitness, B. subtilis 168, one replicate
Details	partner 0.0078 µg/mL	partner 0.0155 µg/mL	partner 0.031 µg/mL	partner 0.075 µg/mL	partner 0.15 µg/mL	partner 0.3 µg/mL
first compound 1.5 µg/mL	0.929	0.903	0.926	0.188	0.058	0.0448
first compound 3 µg/mL	0.958	0.937	0.973	0.0579	0.0634	0.0505
first compound 6 µg/mL	0.89	0.861	0.806	0.061	0.058	0.0518

O=C(O)[C@H]1/C(=C/CO)O[C@@H]2CC(=O)N21 [Clavulanic acid] + Cc1cc(NS(=O)(=O)c2ccc(N)cc2)no1 [Sulfamethoxazol]
fitness
Details	partner 1 µg/mL	partner 2 µg/mL	partner 4 µg/mL
B. subtilis 168, first compound 1.5 µg/mL	0.853	0.883	0.93
B. subtilis 168, first compound 3 µg/mL	0.816	0.839	0.943
B. subtilis 168, first compound 6 µg/mL	0.704	0.733	0.798
S. aureus Newman, first compound 0.03125 µg/mL	0.994	0.974	0.983
S. aureus Newman, first compound 0.0625 µg/mL	≥ 1	≥ 1	≥ 1
S. aureus Newman, first compound 0.125 µg/mL	0.951	0.929	0.929
S. pneumoniae D39V, first compound 0.5 µg/mL	0.985	0.982	0.949
S. pneumoniae D39V, first compound 1 µg/mL	0.914	0.93	0.856
S. pneumoniae D39V, first compound 2 µg/mL	0.836	0.904	0.786

B. subtilis 168, partner 0.5 µg/mL, one replicate
Details	fitness
first compound 1.5 µg/mL	0.974
first compound 3 µg/mL	0.903
first compound 6 µg/mL	0.952
